# Several values for one entry are separate records, joined by “and”; a condition that tells them apart may be missing. Identical values can stand only once.
# Key:
# [1] = system: U251 GBM xenograft; assay: Experiment A: U251 xenograft response to systemic delivery of tirapazamine (mean tumor volume doubling time); format: in vivo, human U251 in male Balb/c athymic nude mice
# Experimental: (§1) Tumor Cell line: The human GBM cell line (U251) used in the study was obtained from the DCT Tumor Repository, National Cancer Institute. Cells were cultured in Delbecco's MEM/Ham's F-12 nutrient mixture with 10% fetal bovine serum (GIBCO) and […] (penicillin and streptomycin) in 12×80 mm plastic culture dishes or T25 culture flasks. Cells were incubated (37° C.) in a mixture of 5% carbon dioxide and 95% air. Media were changed twice weekly and cells were passaged at confluence with 0.5% trypsin.
# (§2) Nude mouse xenonaft: Six week old male Balb/c athymic nude mice received subcutaneous injections of 4×10^6 (experiment A) and 5×10^6 (experiment B) U251 cells in the left posterior extremity. Tumors were visible after 6 to 8 days. Tumor sizes ranged from 0.51-1.2 cm^3 at the start of the treatment. […] Mice were sacrificed after tumors reached at least twice their original tumor volume.
# (§3) Systemic Administration of Tirapazamine: The drug was supplied by Sanoff Winthrop, Collegeville, Pa. Tirapazamine was dissolved in physiological saline at a concentration of […] and intraperitoneal (IP) injections were given in a volume of 0.02 ml/g body weight (0.08 mmole/kg). Animals in experiment A received daily injections, and animals in experiment B received injections twice daily over 3 consecutive days for a total of 6 injections.
# (§4) In Vivo Irradiation: A Mark I Irradiator (Model 68, J. L. Shepherd and Assoc.) was used for in vivo irradiation. The dose to the xenograft was calibrated using TLD dosimetry and confirmed with radiochromic dye media (Gafchromic) mouthed in polystyrene mouse phantoms. The tumor bearing flank was selectively irradiated, with shielding of the mouse trunk and head. In experiment A, irradiation began on the first day of IP tirapazamine injection, and animals received 2 Gy×6 consecutive daily fractions. In experiment B, irradiation and systemic tirapazamine administration began one day following polymer disc implantation and animals received 2 Gy twice daily (separated by 5-6 hours) over 3 consecutive days for a total of 6 fractions. Radiation treatments were given 5-20 minutes following IP drag or saline injections.
# Tumor Volumetrics: Tumor length (L), width (W), and height (H) were measured twice weekly and tumor volumes were calculated as pi/6×L×W×H. The logarithm of the ratio of this product (V) to the initial product (VO) for each animal was calculated and the mean logarithm of this ratio for each treatment group was plotted versus time. The time of regrowth to twice the original tumor volume (V/VO=2; log V/VO=0.3) for each animal and treatment group was calculated from the plot of log V/VO vs. time. Mean tumor volume doubling time (VDT) was used as the endpoint to determine efficacy of a given treatment arm on U251 xenograft tumors. […]
# [2] = system: U251 GBM xenograft; assay: Experiment B: U251 xenograft response to systemic and intratumoral polymer delivery of tirapazamine (mean tumor volume doubling time); format: in vivo, human U251 in male Balb/c athymic nude mice
# Experimental: as §1, §2, §3
# Tirapazamine Polymer Formulation: 2 mg tirapazamine and 8 mg PCPP:SA polymer were combined in methylene chloride ([…] wt/wt). The solvents were removed by desiccation under vacuum. The tirapazamine containing polymers were then pressed into discs measuring 3 mm in diameter and 1 mm in height. Each disc weighed 10 mg.
# (§5) Implantation of Polymer Discs:. For surgical implantation of polymer discs, animals were anesthetized with methoxyflurane, a skin incision was made next to the xenograft, and an empty disc or tirapazamine disc was inserted in the center of the tumor via a single 3-4 mm incision. The incision was closed using wound clips. Contralateral flank polymer discs were placed subcutaneously using the same technique.
# as §4
# (§6) Tumor Volumetrics: Tumor length (L), width (W), and height (H) were measured twice weekly and tumor volumes were calculated as pi/6×L×W×H. The logarithm of the ratio of this product (V) to the initial product (VO) for each animal was calculated and the mean logarithm of this ratio for each treatment group was plotted versus time. The time of regrowth to twice the original tumor volume (V/VO=2; log V/VO=0.3) for each animal and treatment group was calculated from the plot of log V/VO vs. time. Mean tumor volume doubling time (VDT) was used as the endpoint to determine efficacy of a given treatment arm on U251 xenograft tumors. Each animal was weighed bi-weekly to assess possible toxicity to treatment.
# Outcomes among experimental groups were compared using the two tailed Student's test.
# Intralesional delivery of tirapazamine by polymer implants: After establishing the antitumor effect of systemic administration of tirapazamine on GBM xenografts, experiment B was done to evaluate intralesional polymer delivery of tirapazamine alone or combined with irradiation. […]
# [3] = Toxicity, experiment B: mean low and final animal weights as a fraction of the pretreatment weight; format: in vivo, male Balb/c athymic nude mice
# From the text: as §2, §3, §5, §4, §6
# The weight losses were transient, with all groups exceeding their pretreatment weights prior to sacrifice.
# [4] = system: mouse squamous cell VII tumors; conditions: cited from earlier work
# [5] = system: FSalIC Murine Fibrosarcoma; conditions: SR-4233 just before single-dose cyclophosphamide, carmustine or melphalan; cited from earlier work
# [6] = system: mouse SCCVII and other tumors; conditions: multiple injections in conjunction with fractionated irradiation; cited from earlier work
# [7] = contralateral flank drug implant and tumor empty implant + radiation, group 4
# [8] = tumor drug implant + IP tirapazamine + radiation, group 7
# [9] = tumor drug implant + IP tirapazamine, no radiation, group 2
# [10] = tumor drug implant + radiation, group 5
# [11] = tumor empty implant + IP tirapazamine + radiation, group 6
# [12] = within one hour of injecting tirapazamine
smiles,measurement,setting,value
"Nc1n[n+]([O-])c2ccccc2[n+]1[O-] [tirapazamine, 3-amino-1,2,4-benzotriazine-1,4-dioxide]",effect on mean volume doubling time (VDT),"[1]; IP tirapazamine alone, no radiation",no effect
same,Mean xenograft tumor volume doubling time (VDT) ± SEM,"[1]; IP tirapazamine daily × 6 (0.08 mmole/kg) plus radiation 2Gy daily × 6, group 4",35 days and 35 ± 2.5 days
same,Mean xenograft tumor volume doubling time (VDT) ± SEM,"[1]; IP tirapazamine daily × 6 (0.08 mmole/kg), no radiation, group 2",12 days and 12 ± 0.6 days
same,lengthening of mean VDT,"[1]; fractionated radiation (2 Gy×6) plus IP tirapazamine, 12 days for fractionated radiation alone",25 days
same,Mean xenograft tumor doubling time (VDT) ± SEM,"[2]; contralateral flank drug implant and tumor empty implant + radiation 2Gy bid × 3 days, group 4",16.4 ± 1.57 days
same,growth delay,"[2]; group 7 vs IP tirapazamine alone plus radiation, P=0.016",11.8 days
same,growth delay,"[2]; group 7 vs tumor drug implant alone plus radiation, P=0.004",12.8 days
same,growth delay,"[2]; tumor drug implant + IP tirapazamine + radiation (group 7) vs radiation alone controls, P<0.001",16.5 days
same,Mean xenograft tumor doubling time (VDT) ± SEM,"[2]; tumor drug implant + IP tirapazamine bid + radiation 2Gy bid × 3 days, group 7",35.8 ± 2.0 days
same,Mean xenograft tumor doubling time (VDT) ± SEM,"[2]; tumor drug implant + IP tirapazamine bid, no radiation, group 2",10.5 ± .87 days
same,growth delay,"[2]; tumor drug implant + IP tirapazamine, no radiation vs tumor empty polymer implant (group 1), P=0.15",3.5 days
same,Mean xenograft tumor doubling time (VDT) ± SEM,"[2]; tumor drug implant + radiation 2Gy bid × 3 days, no IP tirapazamine, group 5",23.0 ± 2.49 days
same,growth delay,"[2]; tumor drug implant plus radiation (group 5) vs tumor empty implant plus contralateral drug implant with radiation, P=0.055",6.6 days
same,growth delay,"[2]; tumor drug implant plus radiation (group 5) vs tumor empty polymer implant plus radiation, P=0.24",3.7 days
same,Mean xenograft tumor doubling time (VDT) ± SEM,"[2]; tumor empty implant + IP tirapazamine bid + radiation 2Gy bid × 3 days, group 6",24.8 ± 3.0 days
same,growth delay,"[2]; tumor empty implant + IP tirapazamine with radiation (group 6) vs tumor empty implant plus radiation, P=0.15",5.5 days
same,systemic toxicity (weight loss),"[3]; combination of IP and polymer tirapazamine, transient, toxicity primarily associated with the IP treatments",produced systemic toxicity
same,Final body weight/Pretreatment weight (± SEM),[3]; [7],1.08 ± .02
same,Low weight post treatment/Pretreatment weight (± SEM),[3]; [7],0.96 ± .02
same,Final body weight/Pretreatment weight (± SEM),[3]; [8],1.06 ± .03
same,Low weight post treatment/Pretreatment weight (± SEM),[3]; [8],0.85 ± .03
same,Final body weight/Pretreatment weight (± SEM),[3]; [9],1.05 ± .04
same,Low weight post treatment/Pretreatment weight (± SEM),[3]; [9],0.95 ± .01
same,Final body weight/Pretreatment weight (± SEM),[3]; [10],1.06 ± .01
same,Low weight post treatment/Pretreatment weight (± SEM),[3]; [10],0.95 ± .01
same,Final body weight/Pretreatment weight (± SEM),[3]; [11],1.09 ± .03
same,Low weight post treatment/Pretreatment weight (± SEM),[3]; [11],0.89 ± .01
same,time of return of hypoxic fraction to pretreatment levels,[4]; after injecting tirapazamine,3 to 5 h
same,hypoxic fraction,[4]; [12],0.57%
same,"hypoxic fraction, % of pretreatment levels",[4]; [12],about 7%
same,cytotoxic effects on tumor cells in combination with alkylating agents,[5],marked dose enhancement leading to synergistic cytotoxic effects on tumor cells
same,tumor cell kill with fractionated irradiation,[6],increases tumor cell kill while sparing normal tissue

# From patent publication US5637085A, “Method of cancer tumor treatment by slow release delivery of 1,2,4-benzotriazine oxides to tumor site” (priority 1995, dated 1997)
